The source made the active and inactive calls. No cut-off for these calls is given here.
Legend:
[1] = molecular target: T1, Histamine H4 receptor (Homo sapiens, UniProt Q9H3N8); experiment: Antagonist activity at human recombinant histamine H4 receptor-RGS19 fusion protein expressed in Sf9 cells coexpressing Galphai2,Gbeta1gamma2 assessed as inhibition of histamine-induced [35S]GTPgammaS binding after 90 mins by liquid scintillation counting; assay type: functional
[2] = molecular target: T2, Histamine H3 receptor (Homo sapiens, UniProt Q9Y5N1); experiment: Antagonist activity at human recombinant histamine H3 receptor expressed in Sf9 cells coexpressing Galphai2,Gbeta1gamma2 and RGS4 assessed as inhibition of histamine-induced [35S]GTPgammaS binding after 90 mins by liquid scintillation counting; assay type: functional
[3] = molecular target: T3, Histamine H2 receptor (Homo sapiens, UniProt P25021); experiment: Antagonist activity at human recombinant histamine H2 receptor-Gsalphas fusion protein expressed in Sf9 cells assessed as inhibition of histamine-induced [35S]GTPgammaS binding after 90 mins by liquid scintillation counting; assay type: functional
[4] = molecular target: T1, Histamine H4 receptor; experiment: Intrinsic activity at human recombinant histamine H4 receptor-RGS19 fusion protein expressed in Sf9 cells coexpressing Galphai2,Gbeta1gamma2 assessed as [35S]GTPgammaS binding at 10 uM after 90 mins by liquid scintillation counting relative to histamine; assay type: functional
[5] = molecular target: T2, Histamine H3 receptor; experiment: Intrinsic activity at human recombinant histamine H3 receptor expressed in Sf9 cells coexpressing Galphai2,Gbeta1gamma2 and RGS4 assessed as [35S]GTPgammaS binding at 10 uM after 90 mins by liquid scintillation counting relative to histamine; assay type: functional
[6] = molecular target: T3, Histamine H2 receptor; experiment: Intrinsic activity at human recombinant histamine H2 receptor-Gsalphas fusion protein expressed in Sf9 cells assessed as [35S]GTPgammaS binding at 10 uM after 90 mins by liquid scintillation counting relative to histamine; assay type: functional
[7] = molecular target: Histamine H1 receptor (Homo sapiens) (UniProt P35367); experiment: (§1) Antagonist activity at human recombinant histamine H1 receptor expressed in Sf9 cells coexpressing RGS4 assessed as inhibition of histamine-induced […] hydrolysis preincubated for 2 mins before [gamma32P]GTP addition measured after 20 mins by steady-state GTPase activity assay; assay type: functional
[8] = molecular target: Histamine H1 receptor (Homo sapiens) (UniProt P35367); experiment: Intrinsic activity at human recombinant histamine H1 receptor expressed in Sf9 cells coexpressing RGS4 preincubated for 2 mins before [gamma32P]GTP addition measured after 20 mins by steady-state GTPase activity assay relative to histamine
[9] = molecular target: T1, Histamine H4 receptor; experiment: Agonist activity at human recombinant histamine H4 receptor-RGS19 fusion protein expressed in Sf9 cells coexpressing Galphai2,Gbeta1gamma2 assessed as [35S]GTPgammaS binding after 90 mins by liquid scintillation counting; assay type: functional
[10] = molecular target: Histamine H2 receptor (Cavia porcellus) (UniProt P47747); experiment: Agonist activity at guinea pig histamine H2 receptor assessed as potentiation of histamine-induced response after 30 mins relative to histamine
[11] = molecular target: T1, Histamine H4 receptor; experiment: Intrinsic activity at human recombinant histamine H4 receptor-RGS19 fusion protein expressed in Sf9 cells coexpressing Galphai2,Gbeta1gamma2 preincubated for 2 mins before [gamma32P]GTP addition measured after 20 mins by steady-state GTPase activity assay relative to histamine
[12] = molecular target: T2, Histamine H3 receptor; experiment: Intrinsic activity at human recombinant histamine H3 receptor expressed in Sf9 cells coexpressing Galphai2,Gbeta1gamma2 and RGS4 preincubated for 2 mins before [gamma32P]GTP addition measured after 20 mins by steady-state GTPase activity assay relative to histamine
[13] = molecular target: T3, Histamine H2 receptor; experiment: Intrinsic activity at human recombinant histamine H2 receptor-Gsalphas fusion protein expressed in Sf9 cells preincubated for 2 mins before [gamma32P]GTP addition measured after 20 mins by steady-state GTPase activity assay relative to histamine
[14] = molecular target: T2, Histamine H3 receptor; experiment: Agonist activity at human recombinant histamine H3 receptor expressed in Sf9 cells coexpressing Galphai2,Gbeta1gamma2 and RGS4 assessed as [35S]GTPgammaS binding after 90 mins by liquid scintillation counting; assay type: functional
[15] = molecular target: T1, Histamine H4 receptor; experiment: as §1, with “H4 receptor-RGS19 fusion protein” for “H1 receptor”, “Galphai2,Gbeta1gamma2” for “RGS4”; assay type: functional
[16] = molecular target: T2, Histamine H3 receptor; experiment: as §1, with “H3” for “H1”, “coexpressing Galphai2,Gbeta1gamma2 and” for “coexpressing”; assay type: functional
[17] = molecular target: T3, Histamine H2 receptor; experiment: Antagonist activity at human recombinant histamine H2 receptor-Gsalphas fusion protein expressed in Sf9 cells assessed as inhibition of histamine-induced […] hydrolysis preincubated for 2 mins before [gamma32P]GTP addition measured after 20 mins by steady-state GTPase activity assay; assay type: functional
[18] = molecular target: Histamine H1 receptor (Homo sapiens) (UniProt P35367); conditions: Sf9

T1 sequence (Q9H3N8 whole entry, the tested form may be a part): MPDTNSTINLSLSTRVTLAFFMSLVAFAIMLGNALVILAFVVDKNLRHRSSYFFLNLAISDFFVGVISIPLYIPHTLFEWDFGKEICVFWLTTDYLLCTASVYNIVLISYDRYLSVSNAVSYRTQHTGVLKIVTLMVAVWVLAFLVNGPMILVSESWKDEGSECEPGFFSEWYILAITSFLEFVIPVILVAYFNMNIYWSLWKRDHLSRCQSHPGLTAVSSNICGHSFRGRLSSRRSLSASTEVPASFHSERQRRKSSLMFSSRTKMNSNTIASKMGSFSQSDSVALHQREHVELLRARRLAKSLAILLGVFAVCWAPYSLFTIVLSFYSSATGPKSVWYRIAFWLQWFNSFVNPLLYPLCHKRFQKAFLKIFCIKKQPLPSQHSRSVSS
T2 sequence (Q9Y5N1 whole entry, the tested form may be a part): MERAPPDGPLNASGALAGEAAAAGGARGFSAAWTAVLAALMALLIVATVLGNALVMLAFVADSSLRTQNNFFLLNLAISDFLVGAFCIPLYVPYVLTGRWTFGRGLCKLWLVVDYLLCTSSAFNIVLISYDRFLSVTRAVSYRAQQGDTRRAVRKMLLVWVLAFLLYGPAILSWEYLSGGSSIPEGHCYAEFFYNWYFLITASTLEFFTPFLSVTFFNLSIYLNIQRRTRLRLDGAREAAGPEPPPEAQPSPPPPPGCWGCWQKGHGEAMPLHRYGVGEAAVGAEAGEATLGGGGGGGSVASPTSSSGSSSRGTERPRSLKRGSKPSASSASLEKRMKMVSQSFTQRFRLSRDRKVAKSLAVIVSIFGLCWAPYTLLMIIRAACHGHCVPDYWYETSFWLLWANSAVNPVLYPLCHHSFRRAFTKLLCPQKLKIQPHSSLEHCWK
Sequence of Histamine H1 receptor (Homo sapiens) (P35367 whole entry, the tested form may be a part): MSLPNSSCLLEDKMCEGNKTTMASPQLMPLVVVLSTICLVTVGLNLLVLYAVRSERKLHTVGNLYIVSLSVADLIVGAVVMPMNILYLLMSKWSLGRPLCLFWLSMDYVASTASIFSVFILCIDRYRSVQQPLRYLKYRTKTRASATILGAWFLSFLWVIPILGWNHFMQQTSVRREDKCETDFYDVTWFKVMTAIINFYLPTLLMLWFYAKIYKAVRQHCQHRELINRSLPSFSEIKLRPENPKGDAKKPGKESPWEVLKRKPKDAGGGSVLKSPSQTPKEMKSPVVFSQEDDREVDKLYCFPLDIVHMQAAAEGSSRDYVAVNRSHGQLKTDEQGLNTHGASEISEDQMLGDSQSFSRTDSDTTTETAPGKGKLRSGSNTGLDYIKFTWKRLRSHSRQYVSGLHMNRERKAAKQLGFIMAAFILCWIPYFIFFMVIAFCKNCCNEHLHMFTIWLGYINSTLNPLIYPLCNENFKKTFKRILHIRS
T3 sequence (P25021 whole entry, the tested form may be a part): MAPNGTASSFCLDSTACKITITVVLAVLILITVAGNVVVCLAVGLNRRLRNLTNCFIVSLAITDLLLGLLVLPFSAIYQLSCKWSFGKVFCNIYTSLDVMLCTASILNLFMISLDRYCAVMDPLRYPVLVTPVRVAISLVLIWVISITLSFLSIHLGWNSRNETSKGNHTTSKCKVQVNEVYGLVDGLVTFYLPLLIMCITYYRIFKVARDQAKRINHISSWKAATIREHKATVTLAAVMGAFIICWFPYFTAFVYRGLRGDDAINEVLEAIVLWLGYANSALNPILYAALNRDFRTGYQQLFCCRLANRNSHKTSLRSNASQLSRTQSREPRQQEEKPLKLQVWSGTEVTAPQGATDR
Sequence of Histamine H2 receptor (Cavia porcellus) (P47747 whole entry, the tested form may be a part): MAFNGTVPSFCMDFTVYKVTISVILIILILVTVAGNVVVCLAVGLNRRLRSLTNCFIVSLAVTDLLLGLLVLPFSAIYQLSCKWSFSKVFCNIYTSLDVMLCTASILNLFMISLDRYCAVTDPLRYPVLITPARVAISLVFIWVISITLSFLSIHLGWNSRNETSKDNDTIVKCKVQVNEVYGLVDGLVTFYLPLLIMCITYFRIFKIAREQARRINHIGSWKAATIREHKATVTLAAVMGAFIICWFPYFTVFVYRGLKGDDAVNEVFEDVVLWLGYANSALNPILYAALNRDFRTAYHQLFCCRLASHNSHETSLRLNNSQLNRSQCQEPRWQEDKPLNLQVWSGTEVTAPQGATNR

Row | Compound | pKb [2] | pKb [3] | Intrinsic activity [4] | Intrinsic activity [5] | Intrinsic activity [6] | pKb [7] | Intrinsic activity [8] | Intrinsic activity [12] | Intrinsic activity [13] | pKb [15] | pKb [16] | pKb [17] | other results
1 | N#C/N=C(/NCCCNc1ccccn1)NCCSc1ccccc1 | < 5 | < 5 | -0.1 | -0.21 | -0.12 | < 5 | 0.02 | – | – | – | – | – | pKb [1]: < 5
2 | Cc1nc(CCCN/C(=N\C#N)NCCSc2ccccc2)c[nH]1 | < 5 | < 5 | 0.4 | -1.11 | -0.05 | < 5.3 | 0.03 | – | – | – | – | – | EC50 [9]: 468 nM
3 | CC(CC(=O)/N=C(\N)NCCCc1c[nH]cn1)c1ccccc1 (centres undefined) | – | – | – | – | – | – | – | 0.24 | 0.87 | – | – | – | Efficacy [10]: 99%; Intrinsic activity [11]: 0.84
4 | N#C/N=C(\NCCCCc1cnn[nH]1)NCCSc1ccccc1 | – | < 5 | – | – | -0.04 | < 5 | -0.02 | – | – | – | – | – | pEC50 [9]: inactive; pEC50 [14]: inactive
5 | CC(CC(=O)/N=C(\N)NCCCc1ccccc1)c1ccccc1 (centres undefined) | – | – | – | – | – | 5.05 | -0.02 | -0.19 | -0.1 | < 5 | < 5 | 5.89 | –
6 | CN/C(=N/C#N)NCCCCc1nc[nH]c1C | – | < 5 | 0.6 | 0.23 | 0.04 | < 5 | -0.03 | – | – | – | – | – | EC50 [9]: 3630 nM; EC50 [14]: 1070 nM
7 | CN/C(=N\CCSCc1nc[nH]c1C)NC#N | – | 5.77 | – | – | – | – | – | – | – | – | – | – | pKb [1]: < 5
8 | N/C(=N\C(=O)CC(c1ccccc1)c1ccccc1)NCCCc1ncc[nH]1 | – | – | – | – | – | 5.07 | 0.04 | -0.33 | -0.04 | 5.85 | 5.47 | 6.13 | Intrinsic activity [11]: -0.08
9 | N/C(=N\C(=O)CC(c1ccccc1)c1ccccc1)NCCCc1cccnc1 | – | – | – | – | – | 5.04 | 0.06 | -0.14 | -0.16 | < 5 | < 5 | 6.14 | –
10 | N/C(=N\C(=O)CC(c1ccccc1)c1nccs1)NCCCc1ncc[nH]1 (centres undefined) | – | – | – | – | – | – | – | -0.46 | 0 | < 5 | 5.28 | 5.19 | –
11 | CC(CC(=O)/N=C(\N)NCCCc1ccc(CN(C)C)o1)c1cccs1 (centres undefined) | – | – | – | – | – | – | – | -0.73 | -0.12 | < 5 | 5.77 | 6.51 | Intrinsic activity [11]: -0.14
12 | CN/C(=N\C#N)NCCCSc1nc(N)n[nH]1 | – | < 5 | – | – | -0.02 | – | – | – | – | – | – | – | pEC50 [9]: inactive; pEC50 [14]: inactive; pEC50 [18]: inactive
13 | CN/C(=N/C#N)NCCCCc1nc(N)n[nH]1 | – | < 5 | – | – | 0.31 | – | – | – | – | – | – | – | pEC50 [9]: inactive; pEC50 [14]: inactive; pEC50 [18]: inactive
14 | Cc1nccn1CCCCCN/C(=N\C#N)NCCSc1ccccc1 | < 5 | < 5 | -0.05 | -0.42 | -0.08 | < 5 | 0.03 | – | – | – | – | – | pKb [1]: < 5
15 | CN/C(=N/C#N)NCCCc1c[nH]c(C)n1 | < 5 | < 5 | 0.74 | -0.52 | -0.02 | inactive | inactive | – | – | – | – | – | EC50 [9]: 550 nM; pEC50 [18]: inactive
16 | CN/C(=N/C#N)NCCCCc1c[nH]c(C)n1 | < 5 | < 5 | -0.23 | -0.13 | 0.04 | < 5 | 0.01 | – | – | – | – | – | pKb [1]: < 5

From ChEMBL document CHEMBL3217456 (Medchemcomm, 2014)
